Measured values taken from ChEMBL document CHEMBL5579820, “New insights into butyrylcholinesterase: Pharmaceutical applications, selective inhibitors and multitarget-directed ligands” (Eur J Med Chem, 2024).
Several values for one entry are separate records, joined by “and”; a condition that tells them apart may be missing. Equal entries are not always repeated.

Assays:
[1] = molecular target: T1, Amine oxidase [flavin-containing] A (Homo sapiens, UniProt P21397); test: Inhibition of human recombinant MAO-A using kynuramine as substrate by incubated for 75 mins by spectrophotometric analysis
T1 sequence (P21397 whole entry): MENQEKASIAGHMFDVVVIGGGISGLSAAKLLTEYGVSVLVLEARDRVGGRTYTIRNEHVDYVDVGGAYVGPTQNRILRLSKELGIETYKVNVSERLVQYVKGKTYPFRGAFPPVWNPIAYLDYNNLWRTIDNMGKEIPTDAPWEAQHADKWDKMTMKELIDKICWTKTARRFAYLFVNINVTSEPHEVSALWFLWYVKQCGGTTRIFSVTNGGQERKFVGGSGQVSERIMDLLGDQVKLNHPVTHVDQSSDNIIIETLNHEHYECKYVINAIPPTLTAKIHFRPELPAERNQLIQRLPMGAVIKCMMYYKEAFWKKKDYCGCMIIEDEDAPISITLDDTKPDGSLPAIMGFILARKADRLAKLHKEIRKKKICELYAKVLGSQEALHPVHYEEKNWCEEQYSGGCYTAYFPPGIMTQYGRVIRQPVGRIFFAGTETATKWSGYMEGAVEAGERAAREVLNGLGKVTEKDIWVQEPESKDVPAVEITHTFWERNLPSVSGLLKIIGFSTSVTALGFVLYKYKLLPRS

[2] = molecular target: Cholinesterases; ACHE & BCHE (Homo sapiens) (UniProt P06276+P22303); test: Selectivity index, ratio of IC50 for inhibition of human AChE to IC50 for inhibition of human BChE; format: protein assay
Chain of Cholinesterases; ACHE & BCHE (Homo sapiens) (P06276 whole entry, looked up): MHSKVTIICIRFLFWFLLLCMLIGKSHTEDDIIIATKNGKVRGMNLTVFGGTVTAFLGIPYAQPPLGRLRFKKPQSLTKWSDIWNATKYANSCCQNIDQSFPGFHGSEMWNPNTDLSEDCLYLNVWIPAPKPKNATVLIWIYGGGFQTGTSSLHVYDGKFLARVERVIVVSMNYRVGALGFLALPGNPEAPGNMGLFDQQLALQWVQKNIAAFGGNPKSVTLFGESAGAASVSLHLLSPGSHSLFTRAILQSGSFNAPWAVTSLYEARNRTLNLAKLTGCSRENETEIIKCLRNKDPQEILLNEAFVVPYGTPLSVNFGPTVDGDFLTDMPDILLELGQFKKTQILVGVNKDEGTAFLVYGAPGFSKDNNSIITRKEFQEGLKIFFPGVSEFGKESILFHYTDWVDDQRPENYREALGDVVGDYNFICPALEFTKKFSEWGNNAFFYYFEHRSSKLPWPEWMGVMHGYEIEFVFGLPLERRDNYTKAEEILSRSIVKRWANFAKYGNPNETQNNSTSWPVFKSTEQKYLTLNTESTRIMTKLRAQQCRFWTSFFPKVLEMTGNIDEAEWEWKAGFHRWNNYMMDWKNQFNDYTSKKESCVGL
Chain of Cholinesterases; ACHE & BCHE (Homo sapiens) (P22303 whole entry, looked up): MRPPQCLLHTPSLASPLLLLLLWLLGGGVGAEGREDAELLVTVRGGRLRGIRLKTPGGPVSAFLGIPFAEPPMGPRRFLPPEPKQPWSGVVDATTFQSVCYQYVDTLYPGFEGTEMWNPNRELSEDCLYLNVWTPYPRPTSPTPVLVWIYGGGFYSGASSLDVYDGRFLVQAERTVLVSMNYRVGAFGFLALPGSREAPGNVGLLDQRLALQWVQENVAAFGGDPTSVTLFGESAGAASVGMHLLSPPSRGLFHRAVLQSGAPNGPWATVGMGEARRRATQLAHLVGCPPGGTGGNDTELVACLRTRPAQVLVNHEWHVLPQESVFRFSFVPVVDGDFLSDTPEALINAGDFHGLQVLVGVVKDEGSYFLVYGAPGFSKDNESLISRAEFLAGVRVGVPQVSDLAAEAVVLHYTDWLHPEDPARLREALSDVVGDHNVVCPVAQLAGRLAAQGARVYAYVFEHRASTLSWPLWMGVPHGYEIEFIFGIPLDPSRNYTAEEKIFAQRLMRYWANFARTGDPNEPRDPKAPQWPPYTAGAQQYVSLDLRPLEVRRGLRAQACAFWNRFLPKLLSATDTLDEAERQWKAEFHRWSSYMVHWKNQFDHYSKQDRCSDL

Cholinesterase [3] = molecular target: T2, Cholinesterase (Homo sapiens, UniProt P06276)
T2 sequence (P06276 whole entry): as the sequence (P06276 whole entry, looked up) above

Cholinesterase [4] = molecular target: T2, Cholinesterase; test: Inhibition of human BChE using butyrylthiocholineiodide as substrate measured for 30 mins by Ellman's method
Acetylcholinesterase [5] = molecular target: T3, Acetylcholinesterase (Homo sapiens, UniProt P22303); test: Inhibition of AChE (unknown origin) using acetylthiocholine iodide as substrate preincubated for 15 min followed by substrate addition and measured after 60 min by Ellman's method
T3 sequence (P22303 whole entry): as the sequence (P22303 whole entry, looked up) above

[6] = molecular target: Acetylcholinesterase (Electrophorus electricus) (UniProt O42275); test: Inhibition of electric eel AChE using acetylthiocholine iodide as substrate at 50 uM by Ellman's method relative to control
Chain of Acetylcholinesterase (Electrophorus electricus) (O42275 24-633 limits assumed): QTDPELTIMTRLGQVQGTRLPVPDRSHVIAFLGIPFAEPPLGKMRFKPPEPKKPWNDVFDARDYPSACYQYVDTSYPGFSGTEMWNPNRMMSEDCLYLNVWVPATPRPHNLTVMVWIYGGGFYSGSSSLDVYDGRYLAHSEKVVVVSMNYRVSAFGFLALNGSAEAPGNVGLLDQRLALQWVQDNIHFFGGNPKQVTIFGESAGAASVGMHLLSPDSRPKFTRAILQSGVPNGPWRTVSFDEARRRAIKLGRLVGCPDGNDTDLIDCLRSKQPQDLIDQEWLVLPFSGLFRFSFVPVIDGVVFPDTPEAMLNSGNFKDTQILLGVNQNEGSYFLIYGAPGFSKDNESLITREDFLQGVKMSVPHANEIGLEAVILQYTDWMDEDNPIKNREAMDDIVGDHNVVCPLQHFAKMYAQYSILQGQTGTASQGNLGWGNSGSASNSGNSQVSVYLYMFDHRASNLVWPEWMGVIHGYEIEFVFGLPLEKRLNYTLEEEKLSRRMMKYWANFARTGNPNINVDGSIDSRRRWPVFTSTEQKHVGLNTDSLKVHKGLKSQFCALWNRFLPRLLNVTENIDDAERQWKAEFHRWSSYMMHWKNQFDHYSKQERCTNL

Cholinesterase [7] = molecular target: T4, Cholinesterase (Equus caballus, UniProt P81908); test: Inhibition of equine BuChE
T4 sequence (P81908 whole entry): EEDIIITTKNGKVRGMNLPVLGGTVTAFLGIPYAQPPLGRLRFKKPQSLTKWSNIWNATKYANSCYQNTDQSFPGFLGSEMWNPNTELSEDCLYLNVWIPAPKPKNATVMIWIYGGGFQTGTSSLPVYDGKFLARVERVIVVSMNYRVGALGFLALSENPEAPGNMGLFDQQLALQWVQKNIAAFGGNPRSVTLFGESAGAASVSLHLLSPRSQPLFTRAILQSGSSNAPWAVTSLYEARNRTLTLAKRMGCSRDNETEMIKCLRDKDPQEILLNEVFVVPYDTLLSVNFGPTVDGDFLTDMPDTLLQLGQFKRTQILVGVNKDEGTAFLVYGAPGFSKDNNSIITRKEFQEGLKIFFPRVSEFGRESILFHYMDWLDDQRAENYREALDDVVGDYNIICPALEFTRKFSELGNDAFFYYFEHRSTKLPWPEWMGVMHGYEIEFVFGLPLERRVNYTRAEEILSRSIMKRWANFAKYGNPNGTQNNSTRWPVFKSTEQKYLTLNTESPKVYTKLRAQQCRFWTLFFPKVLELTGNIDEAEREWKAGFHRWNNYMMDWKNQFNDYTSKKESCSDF

[8] = Selectivity index, ratio of IC50 for human AChE using acetylthiocholine iodide as substrate to IC50 for equine serum BuChE using butyrylthiocholine iodide as substrate
Acetylcholinesterase [9] = molecular target: T3, Acetylcholinesterase
Cholinesterase [10] = molecular target: T2, Cholinesterase; test: Inhibition of human BChE using butyrylthiocholineiodide as substrate at 10 uM by Ellman's method relative to control
Acetylcholinesterase [11] = molecular target: T5, Acetylcholinesterase (Electrophorus electricus, UniProt O42275); test: Inhibition of electric eel AChE
T5 sequence (O42275 whole entry): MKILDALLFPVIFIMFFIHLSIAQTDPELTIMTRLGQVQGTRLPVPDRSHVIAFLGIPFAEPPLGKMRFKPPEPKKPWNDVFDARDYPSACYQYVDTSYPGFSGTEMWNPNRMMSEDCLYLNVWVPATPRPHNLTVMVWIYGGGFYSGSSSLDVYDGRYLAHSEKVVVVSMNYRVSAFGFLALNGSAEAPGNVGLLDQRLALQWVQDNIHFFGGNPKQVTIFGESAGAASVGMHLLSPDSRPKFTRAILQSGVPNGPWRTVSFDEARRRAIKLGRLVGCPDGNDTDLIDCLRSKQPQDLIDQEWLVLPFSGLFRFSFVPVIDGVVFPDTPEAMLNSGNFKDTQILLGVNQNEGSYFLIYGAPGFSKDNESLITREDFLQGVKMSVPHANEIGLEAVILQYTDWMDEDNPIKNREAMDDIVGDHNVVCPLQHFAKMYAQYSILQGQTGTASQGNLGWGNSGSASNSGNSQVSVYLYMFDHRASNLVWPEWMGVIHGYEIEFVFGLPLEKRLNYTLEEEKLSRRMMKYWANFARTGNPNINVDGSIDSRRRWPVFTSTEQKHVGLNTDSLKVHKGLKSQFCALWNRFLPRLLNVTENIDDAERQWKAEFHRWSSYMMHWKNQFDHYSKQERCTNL

Cholinesterase [12] = molecular target: T2, Cholinesterase; test: Inhibition of human BChE using butyrylthiocholine as substrate by Ellman's method
[13] = Selectivity index, ratio of IC50 for human erythrocyte AChE to IC50 for equine BuChE
Acetylcholinesterase [14] = molecular target: T3, Acetylcholinesterase; test: Inhibition of human AChE at 15 uM relative to control
Cholinesterase [15] = molecular target: T2, Cholinesterase; test: Inhibition of BChE (unknown origin)
Acetylcholinesterase [16] = molecular target: T3, Acetylcholinesterase; test: Inhibition of AChE (unknown origin)
[17] = Selectivity index, ratio of IC50 for electric eel AChE to IC50 for equine serum BuChE
Cholinesterase [18] = molecular target: T4, Cholinesterase; test: Inhibition of equine serum BuChE by Ellman's method
Acetylcholinesterase [19] = molecular target: T5, Acetylcholinesterase; test: Inhibition of electric eel AChE using acetylthiocholine iodide as substrate after 60 mins by Ellman's method
Cholinesterase [20] = molecular target: T2, Cholinesterase; test: Inhibition of human BChE using butyrylthiocholine iodide as substrate preincubated for 15 min followed by substrate addition measured after 40 min by Ellman's method
[21] = molecular target: T6, Protein deacetylase HDAC6 (Homo sapiens, UniProt Q9UBN7); test: Inhibition of HDAC6 (unknown origin)
T6 sequence (Q9UBN7 whole entry): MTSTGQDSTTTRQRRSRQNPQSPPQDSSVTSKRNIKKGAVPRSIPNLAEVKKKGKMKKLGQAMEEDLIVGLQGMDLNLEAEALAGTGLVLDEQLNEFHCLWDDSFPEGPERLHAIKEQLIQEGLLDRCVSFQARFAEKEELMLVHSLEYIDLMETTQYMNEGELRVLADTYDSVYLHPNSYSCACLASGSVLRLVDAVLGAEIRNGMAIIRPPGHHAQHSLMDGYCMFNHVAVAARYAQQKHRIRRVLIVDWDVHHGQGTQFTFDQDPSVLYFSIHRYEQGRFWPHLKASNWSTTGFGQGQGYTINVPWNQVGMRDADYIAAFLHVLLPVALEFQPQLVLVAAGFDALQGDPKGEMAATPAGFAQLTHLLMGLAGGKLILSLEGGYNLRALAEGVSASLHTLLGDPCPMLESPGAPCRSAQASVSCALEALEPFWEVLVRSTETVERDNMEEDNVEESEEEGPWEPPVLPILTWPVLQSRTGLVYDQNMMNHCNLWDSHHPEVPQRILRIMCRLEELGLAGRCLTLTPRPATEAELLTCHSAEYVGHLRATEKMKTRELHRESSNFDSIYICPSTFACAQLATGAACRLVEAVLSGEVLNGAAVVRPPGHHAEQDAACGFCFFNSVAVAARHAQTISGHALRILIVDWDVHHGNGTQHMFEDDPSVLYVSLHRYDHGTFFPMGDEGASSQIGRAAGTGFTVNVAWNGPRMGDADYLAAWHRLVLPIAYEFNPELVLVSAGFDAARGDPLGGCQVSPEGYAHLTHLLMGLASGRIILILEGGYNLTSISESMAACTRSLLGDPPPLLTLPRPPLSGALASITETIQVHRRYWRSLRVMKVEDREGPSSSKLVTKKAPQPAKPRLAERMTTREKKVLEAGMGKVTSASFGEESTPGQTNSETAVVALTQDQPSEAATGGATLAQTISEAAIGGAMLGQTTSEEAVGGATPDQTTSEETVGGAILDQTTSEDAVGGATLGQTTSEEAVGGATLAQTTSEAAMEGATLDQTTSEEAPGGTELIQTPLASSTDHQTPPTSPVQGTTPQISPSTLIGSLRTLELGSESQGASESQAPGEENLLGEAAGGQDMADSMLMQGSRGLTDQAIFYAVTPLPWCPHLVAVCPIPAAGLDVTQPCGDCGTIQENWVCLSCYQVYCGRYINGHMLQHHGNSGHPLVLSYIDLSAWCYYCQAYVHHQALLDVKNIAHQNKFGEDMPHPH

[22] = Inhibition of equine serum BChE using butyrylthiocholine iodide as substrate by measured after 30 mins Ellman's method; format: cell-free, Equus caballus
[23] = molecular target: T7, Amine oxidase [flavin-containing] B (Homo sapiens, UniProt P27338); test: Inhibition of human recombinant MAO-B using benzylamine as substrate by fluorescence based analysis
T7 sequence (P27338 whole entry): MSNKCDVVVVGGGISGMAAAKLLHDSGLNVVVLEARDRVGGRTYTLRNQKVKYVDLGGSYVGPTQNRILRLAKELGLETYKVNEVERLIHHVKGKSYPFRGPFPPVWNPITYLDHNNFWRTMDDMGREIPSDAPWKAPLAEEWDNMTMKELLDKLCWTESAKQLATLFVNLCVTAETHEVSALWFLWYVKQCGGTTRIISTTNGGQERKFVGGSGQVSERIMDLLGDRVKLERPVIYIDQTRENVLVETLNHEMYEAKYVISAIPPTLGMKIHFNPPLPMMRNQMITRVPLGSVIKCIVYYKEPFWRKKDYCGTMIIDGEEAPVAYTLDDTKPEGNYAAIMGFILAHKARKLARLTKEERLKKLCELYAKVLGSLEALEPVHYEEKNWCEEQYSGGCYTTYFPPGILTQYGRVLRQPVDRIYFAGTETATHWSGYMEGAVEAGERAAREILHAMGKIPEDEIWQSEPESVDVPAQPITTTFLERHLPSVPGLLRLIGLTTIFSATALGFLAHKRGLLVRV

[24] = molecular target: Amyloid-beta precursor protein (Homo sapiens) (UniProt P05067); test: Inhibition of self induced amyloid-beta aggregation (1 to 42 residues) (unknown origin) at 20 uM by ThT fluorescence based spectrofluorimetric analysis relative to control
Chain of Amyloid-beta precursor protein (Homo sapiens) (P05067 whole entry, the tested form may be a part): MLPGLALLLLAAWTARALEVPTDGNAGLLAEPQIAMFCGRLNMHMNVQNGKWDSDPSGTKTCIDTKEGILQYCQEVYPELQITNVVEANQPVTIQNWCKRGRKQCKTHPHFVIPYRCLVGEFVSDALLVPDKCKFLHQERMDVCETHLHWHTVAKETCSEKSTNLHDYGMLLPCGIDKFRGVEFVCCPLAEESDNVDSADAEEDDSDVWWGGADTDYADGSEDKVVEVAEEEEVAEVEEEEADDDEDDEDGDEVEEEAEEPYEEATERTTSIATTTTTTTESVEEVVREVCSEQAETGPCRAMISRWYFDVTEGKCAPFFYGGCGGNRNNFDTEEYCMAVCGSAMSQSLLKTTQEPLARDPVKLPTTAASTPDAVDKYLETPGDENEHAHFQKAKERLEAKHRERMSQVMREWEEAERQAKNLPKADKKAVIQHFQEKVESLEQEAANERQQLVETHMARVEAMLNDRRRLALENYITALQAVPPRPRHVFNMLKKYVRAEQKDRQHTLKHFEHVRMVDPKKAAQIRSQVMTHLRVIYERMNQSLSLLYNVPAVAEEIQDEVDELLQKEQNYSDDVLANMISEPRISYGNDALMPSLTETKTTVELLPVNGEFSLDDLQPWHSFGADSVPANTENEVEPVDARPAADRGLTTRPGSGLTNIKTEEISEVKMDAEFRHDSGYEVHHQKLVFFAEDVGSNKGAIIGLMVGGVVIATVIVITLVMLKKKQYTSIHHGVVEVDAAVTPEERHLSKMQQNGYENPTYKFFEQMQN

[O-]/[N+](=C\c1ccc2cccc(O)c2n1)Cc1ccccc1
IC50 [1]: > 100 µM

CCN(CC)C(=O)c1ccc2c(c1)nc(Cc1ccc(OC(=O)N3CCC3)cc1)n2CCC(C)C
Ratio IC50 [2]: 10
IC50 (Cholinesterase [3]): 0.006 µM

c1ccc(-c2nn(-c3ccccc3)cc2-c2nc(-c3ccccc3)c(-c3ccccc3)n2-c2ccccc2)cc1
IC50 (Cholinesterase [4]): 0.35 µM
IC50 (Acetylcholinesterase [5]): 41.2 µM

CCc1ccccc1NC(=O)c1ccc(NS(=O)(=O)c2ccccc2)cc1
inhibition [6]: 0.52%
IC50 (Cholinesterase [7]): 0.046 µM and 0.04 µM
Ratio IC50 [8]: > 1080
IC50 (Acetylcholinesterase [9]): > 50 µM

COc1cccc(C(=O)OCc2ccccc2)c1OC(=O)N(C)OC
IC50 (Cholinesterase [7]): 0.99 µM
inhibition (Cholinesterase [10]): 50%
IC50 (Acetylcholinesterase [11]): > 100 µM

COc1cccc(NC(=O)CN(C)[C@@H](C)C(=O)c2c[nH]c3ccccc23)c1
IC50 (Cholinesterase [3]): 4.24 µM
IC50 (Acetylcholinesterase [9]): > 100 µM

c1ccc(CN2CCC(NCCCCCCn3c4ccccc4c4ccccc43)CC2)cc1
IC50 (Cholinesterase [7]): 0.18 µM
IC50 (Acetylcholinesterase [11]): 26.5 µM

C/C(NCCCCNc1c2c(nc3ccccc13)CCCC2)=C(/N=N/c1ccc(C)cc1)C(=O)c1ccccc1
IC50 (Cholinesterase [12]): 0.35 µM

CC(C)(C)c1cc(CNCCNc2c3c(nc4ccccc24)CCCCC3)cc(C(C)(C)C)c1O
Ratio IC50 [13]: 23

CCCCCCNC(=O)Oc1ccc2c(c1)CN1CCc3ccc(/N=N\c4ccccc4)cc3C1N2C (configuration not stated)
inhibition (Acetylcholinesterase [14]): 54.9%
IC50 (Cholinesterase [3]): 0.044 µM

Cc1ccc(/C=N/NC(=O)Cn2c(=O)sc3ccccc32)s1
IC50 (Cholinesterase [15]): 1.38 µM
IC50 (Acetylcholinesterase [16]): > 40 µM

CON(C)C(=O)Oc1cc(C)ccc1C(=O)NCCc1c[nH]c2ccc(Cl)cc12
Ratio IC50 [17]: > 1750
IC50 (Cholinesterase [7]): 0.057 µM
IC50 (Acetylcholinesterase [11]): > 100 µM

CCNC(=S)N/N=C/c1c(OC)cc(OC)c2c(-c3ccccc3)c[nH]c12
IC50 (Cholinesterase [3]): 1.95 µM
IC50 (Acetylcholinesterase [9]): 59.4 µM

CC(C)N(Cc1ccccc1)C(=O)/C=C/C=C/c1ccc2c(c1)OCO2
IC50 (Cholinesterase [18]): 4.6 µM
IC50 (Acetylcholinesterase [19]): > 1000 µM

CCN(CC)Cc1ccccc1CNC(=O)c1cccc(NC(=O)c2cccc(C(=O)NO)c2)c1
IC50 (Cholinesterase [20]): 0.0018 µM
IC50 [21]: 0.071 µM

O=C(/C=C/c1ccccc1Cl)c1cc2ccccc2oc1=O
IC50 [1]: > 40 µM
IC50 [22]: 7 µM
IC50 [23]: 0.51 µM

O=C(Nc1ccccc1Cl)C(NS(=O)(=O)c1ccccc1)c1ccccc1 (configuration not stated)
inhibition [6]: 1.62%
IC50 (Cholinesterase [7]): 7.33 µM

CCN(C)C(=O)Oc1ccc(CCCNC(=O)c2cccc3[nH]c(-c4ccccc4O)nc23)cc1
inhibition [24]: 60.8%
